Data taken from patent publication US9394549B2, “Method for producing useful chemical substance from terephthalic acid potassium salt” (GENARIS, INC., priority 2012, dated 2016).

How the values were obtained:
[1] = Solubility of terephthalic acid salts in ethylene glycol; format: physicochemical; conditions: for concentration of terephthalate in saturated ethylene glycol solvent: heated at 100° C. for 60 minutes, cooled to 30° C. or less, filtered; for solubility: organic solvent or mixture, same method as Example 1
Description: 4.15 g of terephthalic acid (0.025 mol) was placed in a 200 mL glass beaker and then 0.050 mol of potassium hydroxide (in a form of granule), 0.050 mol of sodium hydroxide (in a form of granule), or 0.025 mol of potassium hydroxide, and 0.025 mol of sodium hydroxide were placed thereto. Ethylene glycol was filled to obtain a volume of about 100 mL. The resulting mixture was covered with aluminum foil as a lid, heated at 100° C. for 60 minutes while stirred by a hot stirrer, and allowed to cool to 30° C. or less. These solutions were filtered with a filter paper (Grade 540 manufactured by Whatman) to obtain an ethylene glycol solvent saturated with the terephthalate.
The concentration of each of the terephthalates contained in such a solvent was 0.23 M in a dipotassium terephthalate saturated solution, 0.11 M in a disodium terephthalate saturated solution, and 0.20 M in a 1-potassium 4-sodium terephthalate saturated solution.

[2] = Solubility of terephthalic acid salts in 1-butanol; format: physicochemical; conditions: organic solvent or mixture, same manner as Example 1
Excerpt: As just seen above, it was found out that, unlike the dissolution in ethylene glycol, the dissolution in 1-butanol was very poor.

[3] = Solubility of terephthalic acid salts in water; format: physicochemical
Description: 2.99 g (0.018 mol) of terephthalic acid (in a form of powder, manufactured by Sigma-Aldrich Japan; hereinafter, unless otherwise specified, reagents used were ones manufactured by Sigma-Aldrich Japan) and 0.036 mol of potassium hydroxide (in a form of granule) were put in a 50 mL-glass beaker. Distilled water was filled to obtain a volume of about 15 mL. The resulting mixture was covered with aluminum foil as a lid, heated at 50° C. for 60 minutes while stirred by a hot stirrer (manufactured by AS ONE Corporation), and allowed to cool to 30° C. After stirring at 30° C. for 120 minutes or more and confirming the precipitate remained in the solution, 1 mL of the solution was collected and subjected to centrifugation using a high speed micro centrifuge (manufactured by Tomy Seiko Co., Ltd.) (30° C., 14000 rpm (17800 g), 30 seconds) to collect the supernatant.
The concentration of terephthalic acid in this supernatant was measured and regarded as the solubility of dipotassium terephthalate. With regard to the measurement of the concentration of terephthalic acid, the sample was diluted 16,000-fold with 2.5% aqueous acetonitrile solution and analyzed in separation conditions of Table 1 using high performance liquid chromatography (Waters Corporation, LCT Premier XE). Thereafter, the concentration was calculated on the basis of a ratio of the area of terephthalic acid peaks using aqueous terephthalic acid solution with a known concentration as a control.

[4] = test system: recombinant Escherichia coli strain M7032 (pUXPEaLT_tphA2A3A1_tpaK); test: Production of TPA-DHD from terephthalic acid salt in jar fermentor culture; format: cell-based; conditions: for Ratio of the capacity in production (TPA-DHD): disodium terephthalate as 100%
Description: Based on the results of Example 1, on the basis of terephthalic acid, potassium hydroxide, sodium hydroxide, 28% ammonium solution and distilled water, 0.6 M dipotassium terephthalate aqueous solution, 0.6 M 1-potassium 4-sodium terephthalate aqueous solution, 0.6 M 1-potassium 4-ammonium terephthalate aqueous solution, and 0.6 M disodium terephthalate aqueous solution were prepared 500 mL each. 30 ml of these terephthalic acid salt solutions and 7 g of glucose were mixed to prepare a glucose and substrate mixed solution.
A TPA-DHD production plasmid pUXPEaLT_tphA2A3A1_tpaK constructed in Reference Example 3 was introduced into Escherichia coli M7032 strain (obtained from CGSC of Yale University) by a transformation method to obtain a recombinant Escherichia coli strain M7032 (pUXPEaLT_tphA2A3A1_tpaK).
This transformant was cultured in 1 ml of LB liquid medium (10 g/l tryptone (manufactured by Difco), 5 g/l dried yeast extract (manufactured by Difco), 10 g/l sodium chloride) containing ampicillin at a final concentration of 100 mg/1 overnight. Next, merely 1% of this overnight culture was inoculated in 10 ml of F6.6W/P100/G2 medium containing ampicillin at a final concentration of 100 mg/I and cultured at 30° C. for 24 hours.
Next, in order to carry out main culture based on this preculture, 65 ml of F6.6W/P10/G1 medium which is a main culture medium was put in an octuple mini jar fermentor (manufactured by ABLE Corporation) and adjusted to 30.2° C.±0.2 and pH 6.9±0.1.
The aeration condition of the jar fermentor culture was adjusted to 1 vvm and the adjustment of the pH of the culture was carried out using an ammonium solution and sulfuric acid. Further, dissolved oxygen in the culture solution was regulated as a saturated oxygen concentration of 100% and controlled with the revolution of stirring blade such that the dissolved oxygen is maintained at 15%, which dissolved oxygen decreasing as bacterial cells grow.
In a main culture medium, 0.1% of preculture was inoculated and cultured in the above condition. When the bacterial cell turbidity reached about 7 at an absorbance of 600 nm, an inducer, m-toluic acid was added such that the final concentration thereof was 1 mM to express a terephthalate 1,2-dioxygenase protein, terephthalate 1,2-dioxygenase reductase protein, and terephthalic acid transporter protein. The glucose concentration was measured with time. When the glucose concentration reached 0, the glucose and substrate mixed solution was administered.
Each of the samples was subjected to analysis in conditions shown in Table 1 by an LC-TOF type mass spectrometer (Waters Corporation, LCT Premier XE). Identification of terephthalic acid was carried out with a combination of retention time of high performance liquid chromatography and an accurate mass value from the mass spectrometer, comparing to a standard sample of terephthalic acid. Among substances appeared as terephthalic acid decreased, TPA-DHD was identified on the basis of a predicted accurate mass value of TPA-DHD. Further, quantification of TPA-DHD was carried out on the basis of a calibration curve prepared from an amount of terephthalic acid decreased and an increase in the peak area of TPA-DHD.
First, 0.6 M dipotassium terephthalate aqueous solution and 0.6 M disodium terephthalate aqueous solution, both of which were prepared in Example 2, were mixed at a ratio of 0:100, 20:80, 25:75, 30:70, 35:65, and 50:50 to prepare each aqueous solution of the terephthalic acid salts. These terephthalic acid salt solutions 30 ml and glucose 7 g were mixed to obtain glucose and substrate mixed solutions.
Using these glucose and substrate mixed solutions, the capacity of recombinant Escherichia coli strain M7032 (pUXPEaLT_tphA2A3A1_tpaK) in production of TPA-DHD was examined by the same method as the method of Example 2. […]

[5] = 30 °C, water, thermodynamic from solid, in water at 30° C., rounded values of the summary, read-out: solubility in water at 30° C.
[6] = 30 °C, water, thermodynamic from solid, in water, 30° C., read-out: Solubility
[7] = 0.6 M salt solution as raw material, 48 hours after the start of the main culture
[8] = salt from PET in 1-butanol, 35 hours
[9] = salt obtained by depolymerization of PET in 1-butanol (Example 9), 0.6M, 35 hours
[10] = salt obtained by depolymerization of PTT (Example 7), 0.6M, 48 hours

With O=C([O-])c1ccc(C(=O)[O-])cc1.[Na+].[Na+] [Disodium terephthalate, disodium terephthalate, reference compound] the “concentration of terephthalate in saturated ethylene glycol solvent” value [1] was 0.11 M, the solubility [1] was 109 mM and the solubility [2] was 1900 µM. It also gave a solubility [3, 5] of ~630 mM, a solubility [3, 6] of 630 mM and a TPA-DHD [4, 7] of 9.7 g/L. For the same compound, the “Ratio of the capacity in production (TPA-DHD)” value (“Ratio of the capacity” below) ([4]; 48 hours) was 100%, the “Ratio of the capacity” value [4, 8] was 100% and the “Ratio of the capacity” value ([4]; salt from PTT, 48 hours) was 100%. It also gave a TPA-DHD [4, 9] of 12.8 g/L and a TPA-DHD [4, 10] of 12.8 g/L.

In the case of N.O=C([O-])c1ccc(C(=O)O)cc1.[K+] [1-potassium 4-ammonium terephthalate], the solubility [3] is reported as 845 mM, the “solubility in water at 30° C.” value [3] is reported as “about 0.85 M” and the TPA-DHD [4, 7] is reported as 12.2 g/L. The “Ratio of the capacity” value ([4]; 48 hours) was 126%.

With O=C([O-])c1ccc(C(=O)[O-])cc1.[K+].[Na+] [1-potassium 4-sodium terephthalate] the “solubility in ethylene glycol” value [1] was 205 mM, the solubility [3] was 956 mM and the “solubility in water at 30° C.” value [3] was “about 0.96 M”. The TPA-DHD [4, 7] was 10.7 g/L, the “Ratio of the capacity” value ([4]; 48 hours) was 110% and the “Ratio of the capacity” value [4, 8] was 116%. The “Ratio of the capacity” value ([4]; salt from PTT, 48 hours) was 112%, the TPA-DHD [4, 9] was 14.8 g/L and the TPA-DHD [4, 10] was 14.3 g/L.

With O=C([O-])c1ccc(C(=O)[O-])cc1.[K+].[K+] [Dipotassium terephthalate, dipotassium terephthalate] the “concentration of terephthalate in saturated ethylene glycol solvent” value [1] was 0.23 M, the solubility [1] was 231 mM and the solubility [2] was 200 µM. The solubility [3, 5] was ~1000 mM, the solubility [3, 6] was 1010 mM and the TPA-DHD [4, 7] was 11.3 g/L. For the same compound, the “Ratio of the capacity” value ([4]; 48 hours) was 116%, the “Ratio of the capacity” value [4, 8] was 136% and the “Ratio of the capacity” value ([4]; salt from PTT, 48 hours) was 138%. The TPA-DHD [4, 9] was 17.4 g/L and the TPA-DHD [4, 10] was 17.7 g/L.
